Measured values: patent publication US11351218B2, “Composition for preventing or treating glioblastoma comprising Platycodon grandiflorum A. De Candolle, Scutellaria baicalensis, Phellodendron amurense Ruprecht or Rubus coreanus” (University-Industry Cooperation Group of Kyung Hee …, priority 2019, dated 2022)

How the values were obtained:
Format in all cases: cell-based, human
[1] = system: cathepsin B and D; assay: Immunoblot of cathepsin B and D processing in GBM cells; settings: PD 5 μM and 10 μM, 48 hours
Experimental: Immunoblot analyses for the processing of endogenous CTSB and CTSD are shown (upper, immature form/lower, mature form of CTSB and CTSD). GAPDH was used as a loading control.
(§1) Cells treated with the concentrations and materials described in FIGS. 1-3B, 7, 8, 10, 13, 16, 18, and 20 were lysed in buffer containing 20 mM Tris-HCl (pH 7.5), 150 mM NaCl, 1 mM EDTA, 1 mM Na2EDTA, 1 mM EGTA, 1% NP-40, 1% sodium deoxycholate, 1 mM Na3VO4, 1 mM MPI, 1 mM PMSF, and PI cocktails for 15 to 20 minutes on ice. Cell lysates were separated by SDS-PAGE and transferred to nitrocellulose membranes. Immunodetection was performed with the following primary antibodies: rabbit anti-LC3B, rabbit anti-cathepsin B, rabbit-anti GAPDH (Cell Signaling Technology, Danvers, Mass.), mouse anti-SQSTM1/p62, and goat anti-cathepsin D (Santa CruzKPL, Gaithersburg, Md., USA) were incubated at room temperature for 1 hour. The protein bands were detected with ECL western Blotting Substrate (Thermo Fisher Scientific, Waltham, Mass., USA).
To confirm whether PD functions as an autophagy inhibitor, the effects of PD on lysosomal proteases, cathepsin B and D, were examined Autophagy is a lysosome-mediated and self-degradative process that requires lysosomal cysteine proteases known as cathepsins. Since pro-cathepsins are cleaved into a mature form in lysosomes, the 33 kD active cleaved form of cathepsins has been commonly used as a marker for lysosomal activity. As can be confirmed in FIG. 13, while the mature forms of cathepsin B and D proteins were decreased, immature forms of those protein were increased after PD treatment in U87MG and U373MG cells, implying that PD suppresses a lysosomal function by downregulating the lysosomal proteolytic activity.

[2] = system: cell-surface LDLR; assay: Cell surface LDLR analysis by flow cytometry, GBM cells; settings: PD 10 μM or U18666a 1 μM, 24 hours
Experimental: FIGS. 16A to 16D show the results that PD increases the expression of LDLR on cell surfaces in GBM cells. […] GAPDH was used as a loading control. […] GAPDH was used as a loading control.
Cells treated as described in FIG. 16 were separated from plates and resuspended in PBS. After washing with 1% BSA in PBS, the cells were incubated with a primary antibody against human LDLR (Abcam) for 30 minutes. Then, the cells were washed before incubation with an Alexa-Fluor 488-conjugated secondary antibody (Invitrogen) for 30 minutes. The stained cells were washed and resuspended. Fluorescence was analyzed by a FACScalibur flow cytometer (Becton Dickinson, San Jose, Calif., USA) using CellQuest™ software.
Brain is the most cholesterol-rich organ of the body, containing about 20% of total body cholesterol. […] As can be confirmed in FIG. 16A, in consistent with these reports, the LDLR protein level was markedly elevated in U87MG and U373MG cells relative to normal human astrocytes. […] Then, the cell surface expression of LDLR was confirmed by flow cytometry.

[3] = system: U87MG cells; assay: GFP-LC3B puncta assay (confocal microscopy), U87MG cells; settings: 10 μM PD, 24 hours
Experimental: The cells transiently expressing GFP-LC3 (green) were treated with DMSO or PD (10 μM) for 24 hours and analyzed by confocal microscopy. Nuclei were stained with DAPI (blue). Quantification shown on the right graph represents mean GFP-LC3B puncta per cells from three independent experiments±SD.
Cultured cells seeded in plates with microscope coverslips were transfected with a pGFP-LC3B plasmid using Lipofectamine 3000 (Thermo Fisher Scientific) according to the manufacturer's instructions. After the transfection, the cells were fixed with 4% paraformaldehyde (PFA) in phosphate-buffered saline (PBS) at room temperature for 10 minutes. The images were examined under a laser confocal microscope (Zeiss, Oberkochen, Baden-Wurttemberg, Germany).
To confirm the western blot data, the LC3B accumulation in GBM cells was monitored using a confocal microscope. Both U87MG and U373MG cells transfected with a green fluorescent protein (GFP)-tagged LC3 expression plasmid were treated with 10 μM PD for 24 hours and examined under a confocal microscope.

[4] = system: LC3B and SQSTM1/p62; assay: Immunoblot of LC3B and SQSTM1/p62 in GBM cells (U87MG and U373MG)
Experimental: FIGS. 2A and 2B show the results that an extract of Platycodon grandiflorum (PG) increases the levels of LC3-II and p62. […] GAPDH was used as a loading control.
FIGS. 3A to 3C show the results that PD inhibits autophagic flux in GBM cells. […] The expression of LC3B and SQSTM1 was confirmed by immunoblot analysis. […] GAPDH was used as a loading control.
The human glioma cell lines, U87MG and U373MG, were cultured respectively in RPMI-1640 (Welgene) and DMEM (Welgene, Daegu, Korea) supplemented with 10% fetal bovine serum (FBS, JR Scientific) and 1% antibiotics (Ab, Welgene). All cultures were maintained at 37° C. in a humidified incubator containing 5% CO2.
as §1

[5] = system: normal astrocytes; assay: BODIPY FL LDL uptake assay, normal astrocytes; settings: PD 10 μM or U18 1 μM, 24 hours
Experimental: Cells were treated with DMSO, PD (10 μM), or U18 (1 μM) for 24 hours and subsequently loaded with BODIPY™ FL LDL. BODIPY-LDL uptake was visualized by confocal microscopy. Nuclei were stained with DAPI (blue). Quantification shown on the right graph represents a relative fold change from three independent experiments±SD.
Cells seeded on coverslips were treated with the materials and then the culture medium was replaced with BODIPY™ FL LDL (Thermo Fisher Scientific) at a working concentration of 5 μg/mL in a medium. The cells were additionally incubated at 37° C. for 1 hour. The degree of LDL uptake was measured using a Zeiss laser confocal microscope.
Based on the previous study results of the present inventors that PD increases cell surface LDLR expression and accumulate cholesterol within lysosomes, whether PD can increase the uptake of exogenous LDL was examined Cells pretreated with PD or U18666A were incubated with BODIPY FL-labeled LDL particles for 1 hour and the LDL uptake was observed by a confocal microscope. Upon analysis of these cells, it was observed that PD caused about a 6-fold increase in LDL uptake and it was a level similar to that detected in the U18666A-treated cells.

C[C@@H]1O[C@@H](O[C@H]2[C@H](OC(=O)[C@]34CCC(C)(C)C[C@H]3C3=CC[C@@H]5[C@@]6(C)C[C@H](O)[C@H](O[C@@H]7O[C@H](CO)[C@@H](O)[C@H](O)[C@H]7O)C(CO)(CO)[C@@H]6CC[C@@]5(C)[C@]3(C)C[C@H]4O)OC[C@H](O)[C@@H]2O)[C@H](O)[C@H](O)[C@H]1O[C@@H]1OC[C@@H](O)[C@H](O[C@@H]2OC[C@](O)(CO)[C@H]2O)[C@H]1O [PD, platycodin D]
immature forms of cathepsin B and D proteins [1]: increased
mature forms of cathepsin B and D proteins [1]: decreased
cell surface expression of LDLR [2]: shift of the FL-1 histogram peak toward right
fold increase of GFP-LC3 puncta per cell vs DMSO [3]: 10.1 fold
GFP-LC3 puncta per cell ([3]; mean±SD): 38.03±5.75
LC3B-II and p62 levels over time ([4]; 10 μM PD, 3 hours to 24 hours): time-dependent increases
LC3B-II and p62 levels ([4]; PD 0 μM to 10 μM, 24 hours): dose-dependent increases
concentration of maximum activity (LC3B-II and p62 levels) ([4]; PD 0 μM to 10 μM, 24 hours): 10 µM
LDL uptake [5]: less effective
